From patent publication US11000482B2, “Fabrication of a suramin-loaded nanoparticle and its application” (UNIVERSITY OF SOUTH CAROLINA, priority 2018, dated 2021)

Assays:
[1] = In vitro release kinetics by dialysis in PBS; type: physicochemical; details: within 1 hour, free drug
Method: Two milliliters of GCS-SM/DOX NPs were loaded in dialysis bags (MWCO: 6-8 KDa, Spectrum laboratories) and were put into 25 mL of PBS (pH 7.4, 100 mM) at 37° C. under continuous stirring. At predesigned time points, 1 mL of media was withdrawn. Concentrations of SM or DOX were determined by UV-Vis spectrometer (Beckman, DU650) at 312 nm and 480 nm, respectively. All experiments were carried out in triplicate independently.

[2] = tested on: MDA-MB-231 cells; assay: Cellular uptake and subcellular distribution of DOX (FACS, confocal, cell fractionation); type: cell-based, human
Method: Cellular uptake of GCS-SM/DOX NPs was quantified by flow cytometry and confocal microscopy. The intracellular distribution of the DOX was measured by cell fraction assay. MDA-MB-231 cells were seeded in 12 well plates at 200,000 cells/well and treated with DOX or GCS-SM/DOX NPs at the DOX concentration of 1 μM for 3 hours. Afterwards, cells were washed 3 times with cold PBS to remove un-bound DOX or nanoparticles. Cells were collected, fixed in 4% formaldehyde, and analyzed by FACS (BD Accuri C6, BD Biosciences).
To further investigate the uptake behaviors of nanoparticles, confocal microscopy was employed. MDA-MB-231 cells were seeded in petri dishes and treated with DOX or GCS-SM/DOX NPs at a DOX concentration of 1 μg/mL. After 3 hours of co-incubation, cells were washed 3 times and images were taken with a Zeiss 710 LM confocal microscope.
GCS-SM/DOX NPs were incubated with MDA-MB-231 cells at 37° C. for 1 hour. Cells were washed 3 times, then collected by scraping. Cells were subjected to subcellular fractionation after the treatment. […] DOX uptake amount was quantified by the fluorescent intensity at the excitation at 485 nm with the emission at 585 nm. The protein concentration of cytosol and nuclear fraction were quantified by BCA assay kit.

[3] = tested on: MDA-MB-231 cells; assay: MTT cell viability assay with combination index analysis; type: cell-based, human
Method: The anticancer activities of the combination of DOX and SM were investigated with an MTT colorimetric assay. Cells with or without a/b FGF treatment were seeded in 96-well plates at an initial density of 20,000 cells/well. After 24 hours of incubation, the medium was replaced with 150 μL of fresh medium containing different treatments, including DOX, SM, and the combination of DOX and SM, and continued to be incubated for an additional 24 hours or 48 hours. Afterwards, the media were replaced with 100 μL fresh media containing 1 mg/mL MTT reagent and incubated for another 4 hours. The formed MTT crystals were dissolved with a stop solution and the final optical density of the medium was measured using a microplate reader (ELX808, Bio-Tech Instrument, Inc.) at λ=595 nm. A combination index (CI) analysis based on the Chou-Talalay method was performed using CalcuSyn software.

[4] = tested on: MDA-MB-231 cells; assay: Wound healing (cell migration) assay; type: cell-based, human; details: MDA-MB-231 pretreated with a/b FGF, live cell imaging
Method: The migration of breast cancer cells was evaluated with a wound healing assay. Living videos of cell migration in a 24-well plate were acquired with a Zeiss 710 LM confocal microscope. MDA-MB-231 cells were pretreated with a/b FGF for 24 hours. After that, a wound was created by scraping the cell monolayer in a straight line with a p200 tip, and cell debris was removed by washing with PBS three times. Cells were incubated with different treatments and allowed to grow in a 37° C. chamber with 5% CO2 for 24 hours. Videos were taken using a confocal microscope with a transmittance channel continuously at 10× magnification.

[5] = tested on: MDA-MB-231 cells; assay: Transwell Matrigel cell invasion assay; type: cell-based, human; details: 40 μM SM, 16 hours; control 952
Method: BD cell culture inserts with a pore size of 8 μm (BD, Biosciences) were pre-coated with 100 μL of Matrigel at the concentration of 0.2 mg/mL (dilution from BD Matrigel stock 10 mg/mL with coating buffer). MDA-MB-231 cells were seeded at a density of 70,000 cells per 50 μL in the inserts in an FBS-free DMEM medium. SM or GCS-SM NPs was then added to the inserts together with 50 μL serum free medium. Each lower chamber was supplied with 1.2 mL 10% FBS containing medium supplemented with different treatments that were the same as each respective top chamber. After 16 hours of incubation, the inserts were washed with PBS and fixed with methanol. Subsequently, cells were stained with hematoxylin and washed twice with PBS. The membrane in each of the inserts was then cut and mounted onto a coverslip, and the cell number was counted with a light microscope under 10× magnification. Each well was imaged at 5 different fields, and the invasion rate was expressed by the average number of cells per microscopic field.

[6] = tested on: Human umbilical vein endothelial cells (HUVECs); assay: Endothelial tube formation assay; type: cell-based; details: HUVEC on Geltrex
Method: Human umbilical vein endothelial cells (HUVECs) were cultured and maintained in a complete EGM Medium. Cells were stained with Celltracker Deep red (1 μM) for 30 minutes prior to the experiment. One hundred and fifty microliters (μL) of Geltrex® (Thermofisher) was added to each well in a 24-well plate and allowed to be polymerized for 30 minutes at 37° C. HUVEC cells were seeded in each well at a density of 2×10^5 cells/mL. SM, GCS, and GCS-SM NPs at concentrations of 10 μM and 20 μM were mixed with cells prior to seeding in the coated gel layer. The tube formation was photographed at 6 hours and 20 hours with an inverted phase contrast microscope (Canon Powershot A640) in a randomly selected field under 10× magnification, and the number of formed tubes and length of the tubes were quantified manually by Image J. Fluorescent images of cells were photographed by Zeiss 710 LM confocal microscope under 10× magnification.

[7] = tested on: MDA-MB-231/Luc-GFP cells; assay: Breast cancer lung metastasis mouse model (tail vein MDA-MB-231/Luc-GFP); type: in vivo, Female athymic mice (nu/nu)
Method: All animal experiments were conducted in accordance with NIH regulations and approved by the Institutional Animal Care and Use Committee of the University of South Carolina. Female athymic mice at the age of 6 to 8 weeks (nu/nu) were obtained from Jackson laboratory. […] Mice were then randomly divided into 5 groups and received the following treatments: 1) saline only; 2) SM at the dose of 3.5 mg/kg once per week; 3) free SM and DOX at the dose of 3.5 mg/kg of SM and 0.5 mg/kg of DOX once per week; 4) GCS-SM NPs at the dose of 3.5 mg/kg of SM once per week; 5) GCS-SM/DOX NPs at the dose of 3.5 mg/kg of SM and 0.5 mg/kg of DOX (molar ratio of SM to DOX is 17:1) once per week. The whole treating procedure lasted for two months and the progression of tumors was monitored every week by luminescence with an IVIS Lumia system after i.v. injection of luciferin (30 mg/mL, 50 μL). Bodyweights of the mice were recorded at the same time. At the endpoint of each mouse, organs were isolated and collected. The weights of the lungs were recorded. Fluorescent images of the lungs were also captured. The collected organs were fixed in 10% neutralized formalin solution and embedded in paraffin.

[8] = Histology (H&E) of lung, liver, kidney and TEM of heart of treated mice; type: in vivo, Female athymic mice (nu/nu)
Method: All animal experiments were conducted in accordance with NIH regulations and approved by the Institutional Animal Care and Use Committee of the University of South Carolina. Female athymic mice at the age of 6 to 8 weeks (nu/nu) were obtained from Jackson laboratory. MDA-MB-231/Luc-GFP cells were implanted by tail vein injection (2×10^6 cells in 100 μL PBS). Mice were then randomly divided into 5 groups and received the following treatments: 1) saline only; 2) SM at the dose of 3.5 mg/kg once per week; 3) free SM and DOX at the dose of 3.5 mg/kg of SM and 0.5 mg/kg of DOX once per week; 4) GCS-SM NPs at the dose of 3.5 mg/kg of SM once per week; 5) GCS-SM/DOX NPs at the dose of 3.5 mg/kg of SM and 0.5 mg/kg of DOX (molar ratio of SM to DOX is 17:1) once per week. The whole treating procedure lasted for two months and the progression of tumors was monitored every week by luminescence with an IVIS Lumia system after i.v. injection of luciferin (30 mg/mL, 50 μL). Bodyweights of the mice were recorded at the same time. At the endpoint of each mouse, organs were isolated and collected. The weights of the lungs were recorded. Fluorescent images of the lungs were also captured. The collected organs were fixed in 10% neutralized formalin solution and embedded in paraffin.
Tissue sections of 5 μm thickness were obtained from the formalin fixed, paraffin embedded tissue blocks with a microtome. […]

[9] = tested on: CD31 stained microvessels in tumor tissues; assay: CD31 immunohistochemistry of tumor microvessels; type: in vivo, Female athymic mice (nu/nu); details: CD31 IHC
Method: Tissue sections of 5 μm thickness were obtained from the formalin fixed, paraffin embedded tissue blocks with a microtome. The standard hematoxylin and eosin staining was performed in the lung, liver and kidney tissue sections of each group. To study the tumor neovasculature, CD31 IHC was applied to identify the intra-tumor blood vessel distribution. The section was deparaffinized and treated for 30 minutes with 0.5 M Tris buffer (pH 10) at 95° C. for antigen retrieval. Sections were blocked in 5% goat serum for 20 min at room temperature. The sections were blocked with peroxidase block for 5 minutes and incubated with a primary antibody (rabbit polyclonal anti-CD31 antibody) diluted with 1% BSA (1:50) for 1 hour at room temperature, followed by the staining with peroxidase labelled polymer for 30 minutes at room temperature. The sections were then developed with the substrate-DAB for 5 minutes at room temperature and counterstained with Gill's Hematoxylin for 10 seconds. The slides were mounted with ProLong® Gold Antifade Mountant and imaged at 40× magnification with a microscope.

[10] = tested on: human prostate PC3 cells; details: in the presence of doxorubicin; cited from earlier work

SMILES	release of free DOX [1]	DOX cellular uptake ([2]; MDA-MB-231 pretreated with a/b FGF, confocal/FACS, 1-6 hours)	subcellular localization of DOX ([2]; confocal, after 3 hours of treatment)	cytotoxicity of DOX on further increase of SM ([3]; SM 20 μM or 100 μM, presence of a/b FGF)	cytotoxicity of DOX on addition of SM ([3]; addition of 10 μM SM, presence of a/b FGF)	inhibitory effect on cell migration [4]	number of invaded MDA-MB-231 cells in each view area [5]	tube formation ability of HUVECs [6]	cytotoxicity ([3]; 200 μM SM, 24 hours, MDA-MB-231)	IC50 ([3]; Homo sapiens, 48 hours of treatment, MDA-MB-231) [µM]	inhibition of cell proliferation (cytotoxicity) ([3]; concentrations up to 200 μM, within 24 h)	survival rates versus control ([7]; Kaplan-Meier at 12 weeks)	median survival time ([7]; Kaplan-Meier at 12 weeks, control 64.5 days) [days]	proliferation of cancer cells and metastasis (whole-body luminescence) ([7]; SM 3.5 mg/kg and/or DOX 0.5 mg/kg once per week, imaging over 6 weeks)	body weight change ([7]; after 8 weeks of treatment)	effect on lung weight ([7]; compared to control group)	kidney histology [8]	lung histology: tumor area [8]	formation of new microvessels in tumor tissues [9]	concentration reversing FGF-induced drug resistance [10] [µM]
COc1cccc2c1C(=O)c1c(O)c3c(c(O)c1C2=O)C[C@@](O)(C(=O)CO)C[C@@H]3O[C@H]1C[C@H](N)[C@H](O)[C@H](C)O1 [DOX, doxorubicin]	about 75%	entered cells much more slowly than GCS-SM/DOX NPs	still stayed in the cytosol	did not additionally boost its cytotoxicity	greatly enhanced															
Cc1ccc(C(=O)Nc2ccc(S(=O)(=O)O)c3cc(S(=O)(=O)O)cc(S(=O)(=O)O)c23)cc1NC(=O)c1cccc(NC(=O)Nc2cccc(C(=O)Nc3cc(C(=O)Nc4ccc(S(=O)(=O)O)c5cc(S(=O)(=O)O)cc(S(=O)(=O)O)c45)ccc3C)c2)c1 [SM, 8,8′-[carbonylbis[imino-3,1-phenylenecarbonylimino (4-methyl-3,1-phenylene)carbonylimino]]bisnaphthalene-1,3,5-trisulphonic acid]						only slightly inhibited cell migration	718	significantly inhibited	no cytotoxicity was observed	200	neither SM nor GCS-SM NP inhibited cell proliferation	moderately increased survival rates	76.5	slowed down compared to the control	did not cause significant weight loss	Neither the SM nor the GCS-SM NP groups showed significant effect on lung weight	normal kidney histologic structure	mild reduction in the occupied area ratio between the tumorous tissue and normal tissue	did not decrease the formation of new blood vessels	1 to 17
